The test system of series [1] is male ob/ob mice. Kind of series: Chronic treatment of ob/ob mice: liver steatosis histology score. Type of series: in vivo. Conditions: H&E sections, n=4, vehicle score 4. As for the experimental part:
(§1) 11-week old male ob/ob mice were individually caged and given a standard lab chow (4% fat) with free access to food and water. Animals were assigned to a treatment group (n=7-8, average weight 54.3+/−0.3 g per group), kept on a 12 hour dark cycle (6 PM to 6 AM), and injected each day between 7 and 9 AM. Chow consumed by each animal was weighed twice weekly. All animals received treatments IP with an injection volume of 0.1 ml. […] Thyroid hormone (T4) was administered at 1.5 μg/mouse for 4 days, reduced to 1 [μg/mouse for 10 days, and returned to 1.5 μg/mouse for the next 14 days. The vehicle controls received sterile saline.
Liver sections were dissected from all treatment groups described above and mounted in paraffin following fixation with NBS-formalin. Sections were mounted and stained with hematotoxylin and eosin (H&E) for visualization of hepatic structural changes. The extent of liver steatosis was evaluated on a four-point scale, […], with zero displaying no signs of liver steatotosis, and 4, representing pronounced macrovesicular and microvesicular steatosis.

Series [2] relates to male ob/ob mice. Kind of series: Chronic treatment of ob/ob mice: adipose tissue depot mass. Type of series: in vivo. Conditions: after 4 weeks of treatment, n=4. As for the experimental part: as §1
Four animals from each group were analyzed for evaluation of changes in adipose tissue depot mass after 4 weeks of treatment. Following sacrifice, brown scapular fat (IBAT) and intra-abdominal fat were dissected and the tissues weighed. […] Elevated thyroid hormone levels are known to act to stimulate]BAT. […] The mesangial fat depot was dissected and removed from the colon for weight determination. Mesangial fat is white adipose tissue and is only readily visualized and dissected in obese mice. Mesangial white fat was removed by carefully stripping the fat, associated matrix and vascular supporting bed from the length of the colon.

Series [3] concerns male ob/ob mice. Put plainly: Chronic treatment of ob/ob mice: serum lipid analysis. Particulars: 5 weeks of treatment, fasted 4 hours. It counts as in vivo. As for the experimental part:
as §1
The study set used for the IPGTT was treated an additional 7 days before sacrifice (total treatment time of 5 weeks). Subject animals were fasted for 4 hours at the beginning of the light cycle, and serum was obtained at sacrifice under isoflurane anesthesia. Triglyceride and total cholesterol levels were determined with the Cholestech LDX blood analyzer (Cholestech Corporation, Hayward Calif.).

For series [4], the system named is male ob/ob mice. Put plainly: Chronic treatment of ob/ob mice: intraperitoneal glucose tolerance test (IPGTT). Type of series: in vivo. Conditions: 4 weeks of treatment; for baseline blood glucose: fasted four hours, n=4; for insulin sensitivity and glucose clearance versus vehicle: IPGTT glucose […]. As for the experimental part:
as §1
Following 4 weeks of daily treatment as described above, mice (n=4/group) were fasted for four hours immediately following the beginning of the light cycle, and a blood sample obtained before IP injection of a glucose solution (1.5 g/kg body weight). Blood samples were obtained at 20, 40, and 120 minutes following injection to evaluate changes in serum glucose and insulin. Glucose concentrations were determined with a Freestyle blood glucose monitor (Therasense Corp.), and insulin concentrations were determined with a commercial ELISA kit (Alpco Diagnostics, Windham N. H.).

Series [5] has as its system male ob/ob mice. Kind of series: in vivo. Conditions: mouse. As for the experimental part: as §1
(§2) After 25 days of treatment as described above, blood was sampled from all treated animals (n=7-8/group), serum separated, and analyzed for total T4 by a commercially available kit (Biocheck, Burlingame, Calif.).

Series [6] concerns male ob/ob mice. Kind of series: Acute stimulation of lipolysis in vivo (serum glycerol and FFA). Particulars: CL 1 mg/kg IP.
Experimental: TSH, the β3-adrenoreceptor agonist CL 316,243 (CL), and saline vehicle were examined for stimulation of lipolysis in mice following an overnight fast. […] Lipolysis was assessed as the change in serum glycerol or FFA compared to baseline.
C57BL/6 male ob/ob mice, age 10 weeks, were grouped to normalize weight (n=7-8 for each treatment; average group weight=37.8 g+/−0.4 g). Mice were housed individually for 18 hours prior to treatment, at which time food was withdrawn, with free access to water given. At approximately 8 a.m., the subjects were anesthetized with halothane and blood samples taken by retro-orbital eye bleeds. The blood was allowed to clot, and the serum was separated by centrifugation and frozen for later analysis. Test substances were administered by IP injection in a volume of 0.1 ml, and the animals replaced in their cages for 2 hours with free access to water. At 2 hours, the mice were sacrificed and blood drawn by cardiac puncture.
For measuring free fatty acids in serum, the method previously described for measuring free fatty acids in conditioned medium was followed, with the following modifications. […] The absorbance at 530 nm was measured on the Wallac Victor2 Multilabel counter. […]
Sigma reagent A was reconstituted to 0.5× the recommended concentration. […] The absorbance at 530 nm was measured on the Wallac Victor2 Multilabel counter.
For series [7], the system named is male ob/ob mice. Put plainly: Chronic treatment of ob/ob mice: body weight and food intake. Type of series: in vivo. Conditions: daily IP treatment, 28 days. As for the experimental part:
as §1
Body weight changes were assessed as the percentage increase in body weight from the beginning of the study.

Series [8] in a line: in vivo. Set-up: species or system mice. Particulars: male, ob/ob, mouse. As for the experimental part:
as §1, §2

Series [9] relates to differentiated 3T3 L1 adipocytes. Put plainly: CRE-luciferase reporter (cAMP) assay in differentiated 3T3 L1 adipocytes. Type of series: cell-based, murine. Conditions: differentiated 3T3 L1 cells, 4 hours. An excerpt:
(§3) 3T3 L1 fibroblasts were differentiated into adipocytes and the cells were transduced with recombinant adenovirus containing a reporter construct, a firefly luciferase gene under the control of cAMP response element (CRE) enhancer sequences. This assay system detects cAMP-mediated gene induction downstream of activation of Gs-coupled G-protein coupled receptors (GPCR's). […] In a separate experiment, undifferentiated 3T3 L1 fibroblasts were transduced with the recombinant adenovirus. […] In another experiment, human primary adipocytes were also transduced with the recombinant adenovirus containing a reporter construct.
(§4) Cells were cultured at 37° C. in an 8% CO2 humidified incubator. Cells were seeded in collagen-coated 96-well plates (Becton Dickinson, cat. # 356407) at a density of 5,000 cells per well. Two days later, differentiation medium was added as follows: DMEM high glucose containing 10% fetal bovine serum (Hyclone, cat. # SH30071), 1 μg/ml insulin, 1 μM dexamethasone, and 0.5 mM 3-isobutyl-methyl xanthine (ICN, cat. #195262). The cells were incubated at 37° C. in 8% CO2 for 4 days and the medium replaced with DMEM high glucose containing 10% fetal bovine serum and 1 μg/ml insulin. The cells were incubated at 37° C. in 8% CO2 for 3 days, then the medium was replaced with DMEM high glucose containing 10% fetal bovine serum.
A general note: A reporter such as luciferase makes a cellular process visible.

For series [10], the system named is human primary adipocytes. Kind of series: CRE-luciferase reporter (cAMP) assay in primary human adipocytes. Type of series: cell-based. Particulars: 4 hours.
From the text: as §3, §4

Results on three compounds are retold here after patent US20040176294A1, “Use of thyroid-stimulating hormone to induce lipolysis” (priority 2003, published 2004).

As for `C[C@H](Cc1ccc2c(c1)OC(C(=O)[O-])(C(=O)[O-])O2)NC[C@H](O)c1cccc(Cl)c1.[Na+].[Na+]` [CL 316,243], the “average liver steatosis score” value in series [1] came to 1. Moreover, in [2], the “brown scapular fat (IBAT) mass” value is 0.87 ± 0.03 g and the “mesangial white fat depot weight” value amounted to 1.53 ± 0.10 g. In series [3], the serum triglyceride was found to be 191 ± 9 mg/dL and the total cholesterol was 198 ± 7 mg/dL. Also, in series [4], the baseline blood glucose was 139 ± 9 mg/dL; the “insulin sensitivity and glucose clearance versus vehicle” value was “exhibited increased insulin sensitivity and increased clearance of the glucose load”. For the same compound, in series [5], the “total T4 in serum” value came out at 5.14 ± 0.19 µg/dL. In series [6], the “serum glycerol and FFA levels” value is “significantly elevated serum glycerol and FFA levels”.
For `N[C@@H](Cc1cc(I)c(Oc2cc(I)c(O)c(I)c2)c(I)c1)C(=O)O` [thyroxine], in [1], the “average liver steatosis score” value stood at 3. Further, in series [2], the “brown scapular fat (IBAT) mass” value came to 1.26 ± 0.03 g and the “mesangial white fat depot weight” value amounted to 1.18 ± 0.11 g. Further, in series [3], the serum triglyceride was 297 ± 30 mg/dL and the total cholesterol is 231 ± 11 mg/dL. Also, in series [4], the baseline blood glucose was found to be 252 ± 34 mg/dL; the “insulin sensitivity and glucose clearance versus vehicle” value was “did not exhibit increased glucose clearance”. In addition, the “percentage increase in body weight from the beginning of the study” value in series [7] was 9.4+/−0.5%. Besides, the concentration at 25 days in [8] amounted to 90.4 ng/mL.
In the case of `CC(C)NCC(O)c1ccc(O)c(O)c1` (centres unmarked) [isoproterenol], the “induction of luciferase expression” value in series [9] is 50 fold. Moreover, the “induction of luciferase expression / reporter gene” value in series [10] is reported as 22 fold.
